For assay [1], the target named is T1, BRD4 bromo domain 1 [BRD4(1)] (Homo sapiens, UniProt O60885).
T1 construct: N-terminally His6-tagged BRD4(1) (amino acids 67-152); made in house; host or cells: E. coli
Kind of assay: BRD4/acetylated peptide H4 binding assay (TR-FRET), BRD4 bromo domain 1. Particulars: inhibition of BRD4(1)/Ac-H4 peptide interaction. The text has this:
(§1) Protein-Protein Interaction Assay: BRD4/Acetylated Peptide H4 Binding Assay
To assess the BRD4(1) binding strength of the substances described in this application, the ability thereof to inhibit the interaction between BRD4(1) and acetylated histone H4 in a dose-dependent manner was quantified.
(§2) For this purpose, a time-resolved fluorescence resonance energy transfer (TR-FRET) assay was used, which measures the binding between N-terminally His6-tagged BRD4(1) (amino acids 67-152) and a synthetic acetylated histone H4 (Ac-H4) peptide with sequence GRGK(Ac)GGK(Ac)GLGK(Ac)GGAK(Ac)RHGSGSK-biotin. The recombinant BRD4(1) protein produced in-house according to Filippakopoulos et al., Nature, 2010, 468:1119-1123 and Cell, 2012, 149:214-231, was expressed in E. coli and purified by means of (Ni-NTA) affinity and (Sephadex G-75) size exclusion chromatography. The Ac-H4 peptide can be purchased, for example, from Biosyntan (Berlin, Germany).
(§3) In the assay, typically 11 different concentrations of each substance (0.1 nM, 0.33 nM, 1.1 nM, 3.8 nM, 13 nM, 44 nM, 0.15 μM, 0.51 μM, 1.7 μM, 5.9 μM and 20 μM) were analysed as duplicates on the same microtitre plate. For this purpose, 100-fold concentrated solutions in DMSO were prepared by serial dilutions (1:3.4) of a 2 mM stock solution into a clear, 384-well microtitre plate (Greiner Bio-One, Frickenhausen, Germany). From this, 50 nl were transferred into a black test plate (Greiner Bio-One, Frickenhausen, Germany). The test was started by the addition of 2 μl of a 2.5-fold concentrated BRD4(1) solution (final concentration typically 10 nM in the 5 μl of reaction volume) in aqueous assay buffer [50 mM HEPES pH 7.5, 50 mM sodium chloride (NaCl), 0.25 mM CHAPS and 0.05% serum albumin (BSA)] to the substances in the test plate. This was followed by a 10-minute incubation step at 22° C. for the pre-equilibration of putative complexes between BRD4(1) and the substances.
(§4) The mixture was then incubated in the dark at 22° C. for one hour and then at 4° C. for at least 3 hours and for no longer than overnight. The formation of BRD4(1)/Ac-H4 complexes was determined by the measurement of the resonance energy transfer from the streptavidin-Eu cryptate to the anti-6His-XL665 antibody present in the reaction. For this purpose, the fluorescence emission was measured at 620 nm and 665 nm after excitation at 330-350 nm in a TR-FRET measuring instrument, for example a Rubystar or Pherastar (both from BMG Lab Technologies, Offenburg, Germany) or a Viewlux (Perkin-Elmer). The ratio of the emissions at 665 nm and at 622 nm was taken as an indicator of the amount of BRD4(1)/Ac-H4 complexes formed.
The data (ratios) obtained were normalized, with 0% inhibition corresponding to the mean from the measurements for a set of controls (typically 32 data points) in which all the reagents were present. In these, in place of test substances, 50 nl of DMSO (100%) were used. Inhibition of 100% corresponded to the mean from the measurements for a set of controls (typically 32 data points) in which all the reagents except BRD4(1) were present. The IC50 was determined by regression analysis based on a 4-parameter equation (minimum, maximum, IC50, Hill; Y=max+(min−max)/(1+(X/IC50)Hill)).

Assay [2] deals with T2, BRD4 bromo domain 2 [BRD4(2)] (Homo sapiens, UniProt O60885).
T2 construct: N-terminally His6-tagged BRD4(2) (amino acids 357-445); made in house; host or cells: E. coli
Kind of assay: BRD4/acetylated peptide H4 binding assay (TR-FRET), BRD4 bromo domain 2. Particulars: inhibition of BRD4(2)/Ac-H4 peptide interaction.
Source text: as §1
To assess the BRD4(2) binding strength of the substances described in this application, the ability thereof to inhibit the interaction between BRD4(2) and acetylated histone H4 in a dose-dependent manner was quantified.
as §2, with “BRD4(2)” for “BRD4(1)”, “357-445)” for “67-152)”, “SGRGK(Ac)GGK(Ac)GLGK(Ac)GGAK(Ac)RHRKVLRDNGSGSK-biotin.” for “GRGK(Ac)GGK(Ac)GLGK(Ac)GGAK(Ac)RHGSGSK-biotin.”
as §3, with “concentrated BRD4(2)” for “concentrated BRD4(1)”, “typically 100” for “typically 10”, “chloride (NaCl); 50 mM potassium fluoride (KF);” for “chloride (NaCl),”, “between BRD4(2)” for “between BRD4(1)”, “substances. Subsequently, 3 μl of a 1.67-fold concentrated solution (in assay buffer) consisting of Ac-H4 peptide (83.5 nM) and TR-FRET detection reagents [83.5 nM anti-6His-XL665 (Cisbio Bioassays, Codolet, France) and 12.52 nM streptavidin-Eu), (Perkin Elmer, #W1024)] in assay buffer were added.” for “substances.”
as §4, with “BRD4(2)/Ac-H4” for “BRD4(1)/Ac-H4”, “chelate” for “cryptate”
The data (ratios) obtained were normalized, with 0% inhibition corresponding to the mean from the measurements for a set of controls (typically 32 data points) in which all the reagents were present. In these, in place of test substances, 50 nl of DMSO (100%) were used. Inhibition of 100% corresponded to the mean from the measurements for a set of controls (typically 32 data points) in which all the reagents except BRD4(2) were present. The IC50 was determined by regression analysis based on a 4-parameter equation (minimum, maximum, IC50, Hill; Y=max+(min−max)/(1+(X/IC50)Hill)).

This passage reports IC50 results from US20160176867A1, “MODIFIED BET-PROTEIN-INHIBITING DIHYDROQUINOXALINONES AND DIHYDROPYRIDOPYRAZINONES” (BAYER PHARMA AKTIENGESELLSCHAFT, priority 2013, published 2016).

As for `Cc1cccc(N2c3nc(Nc4cccc(S(=O)(=O)NC5CCN(C)CC5)c4)ccc3N(C)C(=O)C2C)c1` (stereo not shown) [Example 65, 3-{[1,3-dimethyl-4-(3-methylphenyl)-2-oxo-1,2,3,4-tetrahydropyrido-[2,3-b]pyrazin-6-yl]amino}-N-(1-methylpiperidin-4-yl)benzenesulphonamide], the concentration for half-maximal inhibition (IC50) was 386 nM in assay [1] and 589 nM in assay [2].
Consider `C[C@@H]1C(=O)N(C)c2ccc(Nc3cccc(S(=O)(=O)N4CCN(CC(F)(F)F)CC4)c3)nc2N1C1CCN(C(=O)OC(C)(C)C)CC1` [Example 66, tert-butyl 4-[(3R)-1,3-dimethyl-2-oxo-6-[(3-{[4-(2,2,2-trifIuoroethyl)-piperazin-1-yl]sulphonyl}-phenl)amino]-2,3-dihydropyrido[2,3-b]pyrazin-4(1H)-yl]piperidine-1-carboxylate], for which the IC50 in assay [1] came to 1110 nM; in assay [2], 308 nM.
As for `CC1C(=O)N(C)c2ccc(Nc3cccc(S(=O)(=O)N4CCN(C)CC4)c3)nc2N1c1ccc(N2CCN(C(=O)OC(C)(C)C)CC2)cc1` (stereo not shown) [Example 67, tert-butyl 4-{4-[1,3-dimethyl-6-({3-[(4-methylpiperazin-1-yl)sulphonyl]phenl}-amino)-2-oxo-2,3-dihydropyrido[2,3-b]pyrazin-4(1H)-yl]phenyl}piperazine-1-carboxylate], the half-maximal inhibitory concentration (IC50) was found to be 4380 nM in assay [1] and 5190 nM in assay [2].
On to `C[C@@H]1C(=O)N(C)c2ccc(Nc3cccc(S(=O)(=O)N(C)C)c3)cc2N1C1CCN(C(=O)OC(C)(C)C)CC1` [Example 68, tert-butyl 4-[(2R)-7-{[3-(dimethylsulphamoyl)-phenyl]amino}-2,4-dimethyl-3-oxo-3,4-dihydroquinoxalin-1(2H)-yl]piperidine-1-carboxylate], for which the results for the IC50 in assay [1] and in assay [2] were 433 nM and 76 nM, respectively.
For the molecule `C[C@@H]1C(=O)N(C)c2ccc(Nc3cccc(S(=O)(=O)N(C)C)c3)cc2N1Cc1ccccc1` [Example 69, 3-{[(3R)-4-benzyl-1,3-dimethyl-2-oxo-1,2,3,4-tetrahydroquinoxalin-6-yl]amino}-N,N-dimethyl-benzenesulphonamide], the half-inhibitory concentration (IC50) in assay [1] turned out to be 496 nM; in assay [2], 63 nM.
For `C[C@@H]1C(=O)N(C)c2ccc(N(C)c3cccc(S(=O)(=O)N(C)C)c3)cc2N1C1CCN(C(=O)OC(C)(C)C)CC1` [Example 70, tert-butyl 4-[(2R)-7-{[3-(dimethylsulphamoyl)-phenyl](methyl)amino}-2,4-dimethyl-3-oxo-3,4-dihydroquinoxalin-1(2H)-yl]piperidine-1-carboxylate] the same measures were 749 nM and 384 nM.
In the case of `C[C@@H]1C(=O)N(C)c2ccc(Nc3cccc(S(=O)(=O)N4CCN(C)CC4)c3)cc2N1C1CCOCC1` [Example 71, (3R)-1,3-dimethyl-6-({3-[(4-methylpiperazin-1-yl)sulphonyl]phenl}-amino)-4-(tetrahydro-2H-pyran-4-yl)-3,4-dihydroquinoxalin-2(1H)-one], the IC50 in assay [1] stood at 232 nM; in assay [2], 315 nM.
In the case of `CC(C)N1CCN(C(=O)c2cccc(Nc3ccc4c(n3)N(Cc3ccccc3)[C@H](C)C(=O)N4C)c2)CC1` [Example 76, (3R)-4-benzyl-6-({3-[(4-isopropylpiperazin-1-yl)carbonyl]phenyl}-amino)-1,3-dimethyl-3,4-dihydropyrido[2,3-b]pyrazin-2(1H)-one], the IC50 was found to be 143 nM in assay [1] and 108 nM in assay [2].
For `C[C@@H]1C(=O)N(C)c2ccc(Nc3cccc(C(=O)N4CCN(C)CC4)c3)nc2N1C1CCN(C(=O)OC(C)(C)C)CC1` [Example 78, tert-butyl 4-[(3R)-1,3-dimethyl-6-({3-[(4-methylpiperazin-1-yl)carbonyl]phenyl}-amino)-2-oxo-2,3-dihydropyrido[2,3-b]pyrazin-4(1H)-yl]piperidine-1-carboxylate] the same measures were 151 nM and 157 nM.
For the molecule `C[C@@H]1C(=O)N(C)c2ccc(Nc3cccc(C(=O)NC4CCC(NC5CCN(C)CC5)CC4)c3)nc2N1C1CCOCC1` (stereo partly drawn) [Example 80, 3-{[(3R)-1,3-dimethyl-2-oxo-4-(tetrahydro-2H-pyran-4-yl)-1,2,3,4-tetrahydropyrido[2,3-b]pyrazin-6-yl]amino}-N-{4-[(1-methylpiperidin-4-yl)amino]cyclohexyl} benzamide], the IC50 in assay [1] stood at 196 nM; in assay [2] it was 247 nM.
For `COc1ccc(Nc2ccc3c(n2)N(C2CCOCC2)[C@H](C)C(=O)N3C)cc1C(=O)NC1CCN(C)CC1` [Example 81, 5-{[(3R)-1,3-dimethyl-2-oxo-4-(tetrahydro-2H-pyran-4-yl)-1,2,3,4-tetrahydropyrido[2,3-b]pyrazin-6-yl]amino}-2-methoxy-N-(1-methylpiperidin-4-yl)benzamide], the IC50 worked out at 210 nM in assay [1] and 227 nM in assay [2].
